Experimental findings from patent publication US12377083B2 (WUHAN LL SCIENCE AND TECHNOLOGY DEVELOPMENT CO., LTD., priority 2019, dated 2025) are described below.

As a reminder, the CC50 is the concentration giving 50% cytotoxicity. Lower therefore signals greater toxicity to the cells. Usually IC50 stands for the concentration at which inhibition is half-maximal.

Where only a bound is given, the exact number is not on record here.

Series [1] is described as follows: In vitro metabolic stability, human liver microsomes. The class given is in vitro ADME. Conditions: 1 mg/mL liver microsome protein, 37° C., read-out: Metabolism in human liver microsome T½ min. The method, then: (§1) The in vitro metabolic stability of the compounds disclosed herein was determined through incubation of liver microsomes of various species. A proper amount of test compound was added into a liver microsome reaction system (1 mg/mL liver microsome protein, 25 U/mL glucose-6 phosphate dehydrogenase, 1 mM NADP, 6 mM D-glucose 6-phosphate and 5 mM MgCl2), and then the mixture was incubated in a water bath kettle at 37° C. to start reaction. At each time point, 100 μL of the reaction system was added into a centrifuge tube containing 400 μL of internal standard working solution (containing a 200 ng/mL solution of dexamethasone, diclofenac, tolbutamide and labetalol in acetonitrile) precooled at 0° C. so as to stop the reaction, and the mixture was then centrifuged at 10,000 g for 10 min at 4° C. The supernatant was collected for LC-MS assay so as to obtain the values of in vitro metabolic half-life of the test compounds in liver microsomes of various species.
On the technique in general: Liver microsomes are vesicles of endoplasmic reticulum, rich in cytochrome P450 enzymes.

Series [2] can be described thus: In vitro cytotoxicity assay in HepG2 cells, CCK-8 method. The format is cell-based. Conditions: human. Put shortly: (§2)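 Cells plated at 50,000/well, grown overnight to 80-90% confluence, then given fresh medium with graded compound or DMSO for 48 h at 37°C, 5% CO2. After PBS washes, CCK-8 added for 1.5 h at 37°C in the dark; OD450 read and CC50 calculated.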
On the technique in general: Formazan colour is commonly taken as a measure of viable cells.

Series [3] in a line: In vitro metabolic stability, rat liver microsomes. The format is in vitro ADME. Conditions: 1 mg/mL liver microsome protein, 37° C., read-out: Metabolism in rat liver microsome T½ min. The method, then: as §1
Series [4] concerns A2058 (human melanoma cells). As to the kind of experiment: A2058 cell scratch (migration) assay with LPA. The class given is cell-based. Conditions: 10 μM LPA, scratch area at 24 h.
Series [5] is described as follows: In vitro metabolic stability, mouse liver microsomes. The class given is in vitro ADME. Conditions: 1 mg/mL liver microsome protein, 37° C., read-out: Metabolism in mouse liver microsome T½ min. The method, then: as §1
In series [6] the target is hLPAR1 (human lysophosphatidic acid receptor 1) (Homo sapiens, UniProt Q92633). As to the kind of experiment: FLIPR assay of intracellular calcium increase induced by activation of hLPAR1 expressed in CHO-K1 cells. The format is cell-based. Conditions: CHO-K1 cells expressing hLPAR1, agonist oleoyl-L-α-lysophosphatidic acid 1 μM; read-out: LPAR1 IC50. In outline:
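CHO-K1 cells expressing hLPAR1 were loaded with Fluo-4 AM for 1.0 h at 37° C, then preincubated 30 min at room temperature with compound. Oleoyl-LPA was added at 1 μM final, and calcium fluorescence was recorded by FLIPR for 2 min at 1-s intervals to assess antagonism.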

The subject of series [7] is HepG2 cells. The experiment in a line: In vitro cytotoxicity assay in HepG2 cells, CCK-8 method. The class given is cell-based. Conditions: 48 h. In outline: as §2

Sequence of hLPAR1 (human lysophosphatidic acid receptor 1) (Q92633 whole entry): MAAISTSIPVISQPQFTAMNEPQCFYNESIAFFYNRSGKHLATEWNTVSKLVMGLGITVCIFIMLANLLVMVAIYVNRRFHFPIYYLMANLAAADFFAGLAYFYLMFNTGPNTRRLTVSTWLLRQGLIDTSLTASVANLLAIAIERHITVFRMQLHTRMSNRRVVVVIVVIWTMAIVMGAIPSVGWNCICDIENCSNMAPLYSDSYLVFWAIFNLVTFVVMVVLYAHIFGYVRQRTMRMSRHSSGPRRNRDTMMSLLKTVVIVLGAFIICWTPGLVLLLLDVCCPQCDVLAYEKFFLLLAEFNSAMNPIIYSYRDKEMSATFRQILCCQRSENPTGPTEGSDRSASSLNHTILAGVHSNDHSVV

On to `CN(C(=O)OCc1ocnc1-c1ccc(O[C@H]2CCC[C@H](C(=O)O)C2)cc1)C1CCCC1` (racemic) [Compound 8, (+/−)-(1S,3S)-3-(4-(5-(((cyclopentyl(methyl)carbamoyl)oxy)methyl)oxazol-4-yl)phenoxy)cyclohexane-1-carboxylic Acid], for which the half-life in series [1] was above 30 min; in series [3] it was above 30 min; in series [5], above 0.5 h. This compound also gave a CC50 at 48 h in series [2] above 200 µM. Besides, the “Cell migration inhibition rate (%)” value in series [4] is given as “C (C: 0-30%)”. Further, the IC50 in series [6] was in the range of 0.3 to 10 µM.

For the compound `CN(C(=O)OCc1c(-c2ccc(O[C@H]3CCC[C@H](C(=O)O)C3)c(CF)n2)cnn1C)C1CCCC1` (racemic) [Compound 89], the half-life came to 449 min in series [1], 57.5 min in series [3] and 61.2 h in series [5]. In series [2], this compound returned a CC50 at 48 h of 14.3 µM. Further, the “Cell migration inhibition rate (%)” value in series [4] is listed as “A (A: 50-70%)”. In addition, the IC50 in series [6] was 0.05 to 0.3 µM.

Consider `CN(C(=O)OCc1c(-c2ccc(O[C@H]3CCC[C@H](C(=O)O)C3)cn2)ncn1C)C1CCCC1` (racemic) [Compound 19, (+/−)-(1S,3S)-3-((6-(5-(((cyclopentyl(methyl)carbamoyl)oxy)methyl)-1-methyl-1H-imidazol-4-yl)pyridin-3-yl)oxy)cyclohexane-1-carboxylic Acid], for which, in series [7], the CC50 was above 200 µM. For the same compound, the “Cell migration inhibition rate (%)” value in series [4] is “C (C: 0-30%)”. The IC50 in series [6] was in the range of 0.3 to 10 µM.

Take `CN(C(=O)OCc1ocnc1-c1ccc(O[C@H]2CCC[C@H](C(=O)O)C2)c(F)c1)C1CCCC1` (racemic) [Compound 15, (+/−)-(1S,3S)-3-(4-(5-(((cyclopentyl(methyl)carbamoyl)oxy)methyl)oxazol-4-yl)-2-fluorophenoxy)cyclohexane-1-carboxylic Acid]: the results for the half-life in series [1], in series [3] and in series [5] were above 30 min, above 30 min and above 0.5 h, respectively. In addition, in series [2], the half-maximal cytotoxic concentration (CC50) at 48 h is above 200 µM. Further, the “Cell migration inhibition rate (%)” value in series [4] is “C (C: 0-30%)”. In addition, the IC50 in series [6] fell in the range of 0.3 to 10 µM.

With `Cc1nc(-c2onc(C)c2COC(=O)N(C)C2CCCC2)ccc1O[C@H]1CCC[C@H](C(=O)O)C1` (racemic) [Compound 36], the half-life was found to be 145 min in series [1], 28.4 min in series [3] and 5.66 h in series [5]. Further, in series [2], the CC50 at 48 h was above 200 µM. In series [4], the “Cell migration inhibition rate (%)” value is “A (A: 50-70%)”. Moreover, in series [6], the IC50 is below 0.05 µM.

`CN(C(=O)OCc1ocnc1-c1ccc(O[C@H]2CCC[C@H](C(=O)O)C2)cn1)C1CCCC1` (racemic) [Compound 14]: the half-life in series [1] is above 30 min; in series [3], above 30 min; in series [5] it was above 0.5 h. This compound returned a CC50 at 48 h in series [2] above 200 µM. In series [4], the “Cell migration inhibition rate (%)” value is “C (C: 0-30%)”. Also, the IC50 in series [6] lay in the range of 0.3 to 10 µM.

As for `CN(C(=O)OCc1c(-c2ccc(O[C@H]3CCC[C@H](C(=O)O)C3)c(C(F)(F)F)n2)cnn1C)C1CCCC1` (racemic) [Compound 13, (+/−)-(1S,3S)-3-((6-(5-(((cyclopentyl(methyl)carbamoyl)oxy)methyl)-1-methyl-1H-pyrazol-4-yl)-2-(trifluoromethyl)pyridin-3-yl)oxy)cyclohexane-1-carboxylic Acid], the half-life in series [1] came out at 68.8 min; in series [3] it was 17.2 min; in series [5], 3.55 h. In series [2], this compound had a CC50 at 48 h above 200 µM. In addition, the “Cell migration inhibition rate (%)” value in series [4] is given as “B (B: 30-50%)”. Further, in series [6], the IC50 fell in the range of 0.05 to 0.3 µM.

Take `CN(C(=O)OCc1c(-c2ccc(O[C@H]3CCC[C@H](C(=O)O)C3)c(F)n2)cnn1C)C1CCCC1` (racemic) [Compound 62, (+/−)-(1S,3S)-3-((6-(5-(((cyclopentyl(methyl)carbamoyl)oxy)methyl)-1-methyl-1H-pyrazol-4-yl)-2-fluoropyridin-3-yl)oxy)cyclohexane-1-carboxylic Acid]: the half-life in series [1] was above 30 min; in series [3], around 30 min; in series [5], above 0.5 h. In addition, in series [2], the CC50 at 48 h is above 200 µM. Further, the “Cell migration inhibition rate (%)” value in series [4] is recorded as “A (A: 50-70%)”. The IC50 in series [6] is below 0.05 µM.

Turning to `Cc1nsc(-c2ccc(O[C@H]3CCC[C@H](C(=O)O)C3)cc2)c1COC(=O)N(C)C1CCCC1` (racemic) [Compound 28, (+/−)-(1S,3S)-3-(4-(4-(((cyclopentyl(methyl)carbamoyl)oxy)methyl)-3-methylisothiazol-5-yl)phenoxy)cyclohexane-1-carboxylic Acid], the half-life is above 30 min in series [1], below 30 min in series [3] and above 0.5 h in series [5]. This compound also returned a CC50 at 48 h in series [2] above 200 µM. Moreover, the “Cell migration inhibition rate (%)” value in series [4] was “A (A: 50-70%)”. Moreover, the IC50 in series [6] was below 0.05 µM.

Regarding `CN(C(=O)OCc1c(-c2ccc(O[C@H]3CCC[C@H](C(=O)O)C3)c(C(F)F)n2)cnn1C)C1CCCC1` (racemic) [Compound 63, (+/−)-(1S,3S)-3-((6-(5-(((cyclopentyl(methyl)carbamoyl)oxy)methyl)-1-methyl-1H-pyrazol-4-yl)-2-(difluoromethyl)pyridin-3-yl)oxy)cyclohexane-1-carboxylic Acid], the half-life in series [1] was found to be 386 min; in series [3], 44.9 min; in series [5] it was 8.96 h. The CC50 at 48 h in series [2] is above 200 µM. Also, the “Cell migration inhibition rate (%)” value in series [4] is “B (B: 30-50%)”. For the same compound, in series [6], the half-maximal inhibitory concentration (IC50) is below 0.05 µM.
